From patent publication US7090853B2, “Noscapine derivatives as adjuvant compositions and methods of use thereof” (Emory University, priority 1999, dated 2006) come the findings set out here.

The assay relates to HL-60 cells. Description: Apoptosis of HL-60 cells, DAPI staining of nuclear chromatin. The format is cell-based. To be noted: for Apoptic Cell Percentage: 24 hours; for Initiation of apoptosis: DAPI staining. How it is done:
Morphological changes in the nuclear chromatin of HL-60 cells undergoing apoptosis were detected by staining with 4′,6-diamidino-2-phenylindole (DAPI). In brief, 0.5×10^6 to 3×10^6 cells were fixed with 4% glutaraledebyde, 0.2% Triton x-100, in PBS and incubated at room temperature for 10 min., then centrifuged at 1000×g for 10 min., resuspended in 20 μl 0.1% DAPI ethanol. Following 15 min, incubation at room temperature, at 10 μl aliquot was placed on a glass slide, and 400 cells per slide were scored for the incidence of apoptotic chromatin changes with a fluorescence microscope.

The mark [1] stands for this setting: 20 μM in DMSO, two trials, result for each trial shown.

“1,3-dihydro-4,5-dimethoxy-1-[1-(8-methoxy-2-methyl-6,7-methylenedioxy-1,2,3,4-tetrahydroisoquinoliyl)]isobenzofuran-BH3 [Compound 3]”: the Initiation of apoptosis result was “initiate apoptosis”. The “Apoptic Cell Percentage” value under setting [1] turned out to be 37.28%. Also, the “Apoptic Cell Percentage” value (50 μM in DMSO) came out at 39%.

On to `COc1ccc2c(c1OC)CO[C@@H]2[C@H]1c2c(cc3c(c2OC)OCO3)CCN1C` [Compound 4, 1,3-dihydro-4,5-dimethoxy-1-[1-(8-methoxy-2-methyl-6,7-methylenedioxy-1,2,3,4-tetrahydroixo-quinolinyl)]isobenzofuran], for which the Initiation of apoptosis entry was “initiate apoptosis”. Besides, the “Apoptic Cell Percentage” value under setting [1] worked out at 48.32%. Moreover, the “Apoptic Cell Percentage” value (50 μM in DMSO) was 52%.
